Here are results for 56 molecules from PubChem BioAssay AID365 (MTDP, 2006).

Broadly, the IC50 is the midpoint of a concentration-inhibition curve.

Active and inactive are the calls of the source. The rule behind the calls is not given here.

Ribonuclease HI (Escherichia coli (strain K12)), sequence (P0A7Y4 whole entry, looked up): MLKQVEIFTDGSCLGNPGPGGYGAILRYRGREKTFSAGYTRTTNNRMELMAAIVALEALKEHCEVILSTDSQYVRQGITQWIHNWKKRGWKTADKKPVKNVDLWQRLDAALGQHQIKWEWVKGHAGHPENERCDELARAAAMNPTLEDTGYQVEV

The experiment concerns the target Ribonuclease HI (Escherichia coli (strain K12)) (UniProt P0A7Y4). Description: inhibition of bacterial ribonuclease H activity – biochemical, FRET RNA/DNA duplex cleavage, dose response (AID 365). Particulars: E. coli RNase H, FRET RNA/DNA cleavage fluorescence.
With `Cc1sc(NC(=O)c2ccc(Br)o2)c(C(N)=O)c1C`, the IC50 was 4 µM.

`Nc1ccc(S(=O)(=O)O)c2cccc(O)c12`: the IC50 entry is “inactive”. The figure for `Cc1ccc(NC(=O)c2c(NC(=O)C(F)(F)F)sc(-c3ccccc3)c2C)c(C)c1` is 8.1 µM; for `O=C1C=CC(=O)C(c2cccc(Cl)c2)=C1` it is 8.8 µM. For `CC(C)=CCC(O)C1=CC(=O)c2c(O)ccc(O)c2C1=O` (stereo unspecified) the value was “inactive”; for `O=c1c(O)c(-c2ccc(O)c(O)c2)oc2cc(O)cc(O)c12`, “inactive”; for `O=C(O)C1Nc2c(Cl)cc(Cl)cc2C2C=CCC12` (stereo unspecified), “inactive”. The figure for `CC1=C(CCC(=O)O)c2cc3nc(cc4[nH]c(cc5[nH]c(cc1n2)c(C)c5C(C)O)c(C)c4C(C)O)C(C)=C3CCC(=O)O` (stereo unspecified) is > 100 µM (inactive); for `Cc1ccc(-c2c(C#N)c(SCC(=O)c3ccc(O)c(O)c3)nc3c2CCCC3)o1` it is 0.2 µM. For `O=C(Cc1ccccc1Cl)c1ccc(O)c(O)c1O`, the IC50 result was “inactive”. For `CC(C)=CCC1=C(O)[C@@](O)(CC=C(C)C)C(=O)C(C(=O)CC(C)C)=C1O` the value was “inactive”; for `COc1cc([C@@H]2c3cc4c(cc3C[C@H]3COC(=O)[C@@H]32)OCO4)cc(OC)c1O`, 2.4 µM. For `CCc1c(O)c2c(c(O)c1C(C)=O)C(=O)c1c(cc(O)c(C(=O)O)c1C(=O)O)C2=O` the value was > 100 µM (inactive); for `NC(=O)c1c(NC(=O)CCc2ccccc2)sc2c1CCCCCC2`, 2 µM; for `O=C(O)CCc1c2ccc(=O)c(O)c-2oc2c(O)c(O)ccc12`, 1.5 µM. For `Cc1cc(Br)ccc1N1C(=O)/C(=C/c2ccco2)C(=O)NC1=S` the value was 0.2 µM; for `COc1ccc(/C=C\C(=O)c2c(-c3ccccc3)c3cc(C)ccc3[nH]c2=O)c(OC)c1`, 9 µM; for `C[N+](C)=c1ccc2nc3c(cc(Nc4ccccc4)c4ccccc43)oc-2c1`, 2.8 µM. Take `Cc1ccccc1-n1c(O)c(C=C2C=CC=N2)c(=O)[nH]c1=S`: the IC50 is 8 µM. As for `C[C@@H]1Oc2c3c(c4c(-c5ccccc5)cc(=O)oc4c2C(=O)[C@H]1C)OC(C)(C)C=C3`, the IC50 is 4.2 µM.

As for `O=[N+]([O-])c1cc(Cc2cc([N+](=O)[O-])c3cccnc3c2O)c(O)c2ncccc12`, the IC50 entry is “inactive”. For `COc1ccc(-c2c(C#N)c(N)nc(SCC(=O)c3ccc(O)c(O)c3)c2C#N)cc1` the value was 0.6 µM; for `O=C1C(Cl)=CC(=NS(=O)(=O)c2ccccc2)C=C1Cl`, “inactive”; for `O=c1c(O)cccc2cc(O)c(O)c(O)c12`, “inactive”.

As for `CC(C)=CCC[C@]1(C)[C@@H](CC=C(C)C)C[C@@]2(CC=C(C)C)C(=O)/C(=C(\O)c3ccc(O)c(O)c3)C(=O)[C@]1(CC=C(C)C)C2=O`, the IC50 is 2.1 µM. For the molecule `Cc1ccc(S(=O)(=O)/N=C2\C=C(Sc3ncn[nH]3)C(=O)c3ccccc32)cc1`, the IC50 entry is “inactive”.

`O=C1C(Cl)=C/C(=N\S(=O)(=O)c2ccccc2)C(Cl)=C1Cl`: the IC50 entry is “inactive”. The figure for `O=c1[nH]c(=S)n(-c2ccccc2F)c(O)c1C=C1C=CC=N1` is 0.8 µM; for `CN(C)CS/C(N)=N/C(O)C(Cl)(Cl)Cl` (stereo unspecified) it is “inactive”; for `O=C1NC(=S)N(c2ccccc2F)C(=O)/C1=C/c1ccc(I)o1` it is 7.3 µM.

For `CCOc1ccc(NC(=O)c2c(NC(=O)c3ccco3)sc3c2CCCCC3)cc1`, the IC50 result was “inactive”. Consider `Cc1cc(-c2ccc(C=C3C(=O)NC(=S)NC3=O)o2)c([N+](=O)[O-])cc1C`, for which the IC50 was 8.8 µM. The figure for `O=C(O)/C=C/c1c2ccc(=O)c(O)c-2oc2c(O)c(O)ccc12` is 2 µM. With `O=C(Nc1sc2c(c1C(=O)Nc1cccc3ccccc13)CCCCC2)c1ccccc1F`, the IC50 is 5 µM. For `Cc1ccc(NC(=O)c2c(NC(=O)c3ccccc3F)sc3c2CCCCC3)cc1` the value was 0.6 µM; for `COc1cc(C=O)ccc1OCCCOc1cccc(Oc2ccccc2)c1`, 4.1 µM; for `Oc1cc(O)c2cc(O)c(-c3ccc(O)c(O)c3)[o+]c2c1`, 0.4 µM. For `Cc1sc(NC(=O)C2CC3CCC2C3)c(C(N)=O)c1C` (stereo unspecified) the value was “inactive”; for `Cc1ccc(-c2n[nH]c(=S)n2/N=C/c2ccc(O)c(O)c2O)cc1`, “inactive”. With `O=C(Nc1ccc(N2CCN(C(=O)c3ccccc3)CC2)cc1)c1ccc(-c2ccccc2)cc1`, the IC50 was 3.8 µM. For `Nc1ccc(N=Nc2ccc(-c3ccc(O)cc3)cc2)c2ccc(S(=O)(=O)O)cc12` the value was “inactive”; for `Cc1ccc(C(=O)NC(=S)Nc2ccc(-c3nc4ccccc4s3)cc2)cc1[N+](=O)[O-]`, 3.7 µM; for `O=C1NN(c2ccc(I)cc2)C(=O)/C1=C\c1ccc(O)c(O)c1`, 3.5 µM. For `O=C1c2cc([N+](=O)[O-])ccc2-c2ccc3c4ccc5c6c(ccc(c7ccc1c2c73)c64)C(=O)c1cc([N+](=O)[O-])ccc1-5` the value was 1.8 µM; for `CCC(=O)Nc1sc2c(c1C(=O)Nc1ccc(OC)cc1)CCCCC2`, 9 µM. For `C[C@]12CC[C@H]3[C@@H](CCC4=CC(=O)CC[C@@]43C)[C@@H]1CC[C@@H]2C(=O)COS(=O)(=O)c1ccc(Br)cc1` the value was “inactive”; for `Cc1c(O)c(Br)c(C)c(O)c1Br` (tested in a mixture with another compound), > 100 µM (inactive). For the molecule `FC(F)(F)c1nc2ccc(SSc3ccc4nc(C(F)(F)F)[nH]c4c3)cc2[nH]1`, the IC50 is 8 µM. The entry for `Cc1ccc(C=C2C(=O)NC(=S)N(c3ccccc3Cl)C2=O)o1` is “inactive”; for `CC(C)c1ccc(O)c(=O)cc1` it is > 100 µM (inactive); for `C=CC1=C(C)C2=NC1=CC1=NC(=CC3=C(C)C4=C(O)C(C(=O)OC)C(=C5NC(=C2)C(C)C5CCC(=O)OC/C=C(\C)CCCC(C)CCCC(C)CCCC(C)C)C4=N3)C(CC)=C1C` (stereo unspecified) it is > 100 µM (inactive). `O=C1NC(=O)/C(=C/c2ccc(-c3ccc(O)c(C(=O)O)c3)o2)S1`: the IC50 was 1.3 µM.

For `C=CCN1C(=O)/C(=C\c2ccc([N+](=O)[O-])o2)C(=O)NC1=S`, the IC50 is 72 µM.

With `CCCc1cc(=O)oc2c3c(c4c(c12)OC(C)(C)C=C4)O[C@@H](C)[C@H](C)[C@@H]3F`, the IC50 is 7 µM. The figure for `Cc1nn(CC(=O)Nc2sc(C)c(C)c2C(N)=O)c(C)c1[N+](=O)[O-]` is 8.2 µM; for `Cc1ccc(S(=O)(=O)/N=C2\C=CC(=O)C=C2Cl)cc1` it is “inactive”.
